From article PMC10053552, “Multiple Bioactivities of Peptides from Hydrolyzed Misgurnus anguillicaudatus” (Molecules, 2023)
Values belong to the molecule of their own block, whether it stands above or below them.

How the values were obtained:
DPPH scavenging activity = format: biochemical; settings: 0.5 mg/mL, glutathione at the same concentration
[1] = tested on: pancreatic cholesterol esterase (CE); assay: Pancreatic CE inhibitory activity; format: biochemical; settings: 1 mg/mL (Figure 6a); pNPB substrate, pH 7.2, 37 °C, 30 min, 405 nm
[2] = Hydroxyl radical scavenging activity; format: biochemical; settings: 0.5 mg/mL; amount higher than that of glutathione at the same concentration
[3] = target: angiotensin-converting enzyme (ACE) (UniProt P12821)
UniProt P12821, sequence (P12821 30-1256): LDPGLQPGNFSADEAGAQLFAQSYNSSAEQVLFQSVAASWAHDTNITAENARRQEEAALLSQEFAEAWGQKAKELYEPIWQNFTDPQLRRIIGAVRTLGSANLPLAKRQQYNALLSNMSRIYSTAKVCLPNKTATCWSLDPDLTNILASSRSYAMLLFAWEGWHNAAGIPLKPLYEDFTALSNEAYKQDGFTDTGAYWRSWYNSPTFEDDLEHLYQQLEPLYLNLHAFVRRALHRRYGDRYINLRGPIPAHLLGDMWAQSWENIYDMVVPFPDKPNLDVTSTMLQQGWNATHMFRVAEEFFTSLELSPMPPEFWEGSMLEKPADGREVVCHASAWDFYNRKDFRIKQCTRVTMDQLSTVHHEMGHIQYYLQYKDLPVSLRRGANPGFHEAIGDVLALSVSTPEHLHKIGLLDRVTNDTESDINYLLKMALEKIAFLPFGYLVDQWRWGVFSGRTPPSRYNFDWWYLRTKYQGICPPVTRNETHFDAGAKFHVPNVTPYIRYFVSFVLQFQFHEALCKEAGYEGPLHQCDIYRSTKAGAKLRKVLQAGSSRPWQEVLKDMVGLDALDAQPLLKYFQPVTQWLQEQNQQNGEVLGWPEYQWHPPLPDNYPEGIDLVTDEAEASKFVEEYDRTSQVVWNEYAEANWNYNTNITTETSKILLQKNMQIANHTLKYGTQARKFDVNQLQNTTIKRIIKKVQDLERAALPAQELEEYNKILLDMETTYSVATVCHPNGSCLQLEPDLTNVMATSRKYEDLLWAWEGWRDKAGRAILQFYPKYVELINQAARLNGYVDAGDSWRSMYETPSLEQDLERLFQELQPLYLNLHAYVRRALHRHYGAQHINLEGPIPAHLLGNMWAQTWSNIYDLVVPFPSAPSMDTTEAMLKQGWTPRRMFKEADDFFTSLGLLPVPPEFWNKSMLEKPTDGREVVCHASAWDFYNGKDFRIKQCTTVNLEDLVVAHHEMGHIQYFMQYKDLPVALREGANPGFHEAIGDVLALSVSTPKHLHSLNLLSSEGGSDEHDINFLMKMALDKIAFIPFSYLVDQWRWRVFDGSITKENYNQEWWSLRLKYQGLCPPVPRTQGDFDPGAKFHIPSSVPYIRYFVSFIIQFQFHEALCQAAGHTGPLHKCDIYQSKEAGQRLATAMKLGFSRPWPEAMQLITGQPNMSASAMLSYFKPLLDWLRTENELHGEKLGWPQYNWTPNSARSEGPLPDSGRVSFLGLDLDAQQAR

[4] = target: pancreatic cholesterol esterase (CE) (UniProt P19835)
UniProt P19835, sequence (P19835 21-753): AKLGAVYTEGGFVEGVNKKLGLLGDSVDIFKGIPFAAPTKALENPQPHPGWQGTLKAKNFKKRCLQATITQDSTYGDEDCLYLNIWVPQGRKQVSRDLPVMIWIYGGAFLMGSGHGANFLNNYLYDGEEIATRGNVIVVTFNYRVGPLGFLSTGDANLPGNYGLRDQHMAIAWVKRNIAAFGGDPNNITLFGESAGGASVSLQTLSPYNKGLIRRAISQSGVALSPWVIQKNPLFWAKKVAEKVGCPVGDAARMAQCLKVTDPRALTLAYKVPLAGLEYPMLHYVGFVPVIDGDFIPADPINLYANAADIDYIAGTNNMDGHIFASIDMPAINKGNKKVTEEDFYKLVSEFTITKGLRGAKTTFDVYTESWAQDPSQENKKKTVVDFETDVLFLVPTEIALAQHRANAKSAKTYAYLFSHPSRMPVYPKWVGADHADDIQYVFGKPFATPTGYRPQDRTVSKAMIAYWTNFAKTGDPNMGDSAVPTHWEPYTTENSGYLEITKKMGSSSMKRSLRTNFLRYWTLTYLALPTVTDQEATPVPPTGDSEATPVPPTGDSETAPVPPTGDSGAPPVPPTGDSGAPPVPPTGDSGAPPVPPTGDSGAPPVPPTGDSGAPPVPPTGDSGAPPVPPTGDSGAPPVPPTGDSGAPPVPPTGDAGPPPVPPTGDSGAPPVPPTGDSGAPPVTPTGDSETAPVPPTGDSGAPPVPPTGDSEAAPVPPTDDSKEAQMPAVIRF

Molecule: DAGAGIAL [Peptide D-5, peptide DAGAGIAL identified in loach hydrolysate component F2, solid-phase synthesized]
DPPH scavenging activity as percentage of that of glutathione (DPPH scavenging activity): more than 90%

Molecule: NDHFVKL [Peptide D-3, peptide NDHFVKL identified in loach hydrolysate component F2, solid-phase synthesized]
DPPH scavenging activity as percentage of that of glutathione (DPPH scavenging activity): more than 90%
Pancreatic CE inhibition [1]: exhibited inhibitory effects on pancreatic CE

Molecule: SERDPSNIKWGDAGAQ [Peptide D-1, peptide … identified in loach hydrolysate component F2, solid-phase synthesized]
DPPH scavenging activity as percentage of that of glutathione (DPPH scavenging activity): more than 90%
Hydroxyl radical scavenging activity: excess over glutathione [2]: 15.87%

ACE inhibitory activity, percent inhibition (FAPGG hydrolysis; peptide concentration not given) [3]: 92.1%
IC50 of ACE inhibition (enzyme activity, FAPGG hydrolysis, absorbance at 340 nm, 37 °C, pH 8.3) [3]: 0.12 mM
Molecule: AFRVPTP [peptide D-4 (AFRVPTP)]

IC50 of pancreatic CE inhibition (enzyme activity, pNPB hydrolysis, absorbance at 405 nm, 37 °C, pH 7.2) [4]: 2.62 mM
Molecule: TVDGPSGKLWR [peptide D-2 (…)]
